According to patent US6310086A, “Indole derivatives and medicinal compositions containing the same” (Kissei Pharmaceutical Co., Ltd., priority 1998, dated 2001):
Structures can show the parent of a compound that is named as a salt. Where two headings read alike, the source gives them in different places.

Key:
[1] = Test for Rate of Hydrolysis by Endogenous Enzyme in whole blood; type: in vitro ADME, rat (male Wistar); conditions: for metabolised at 0.25 h: read-out: Decomposition rate, 15 minutes after; for metabolised at 1 h: read-out: Decomposition rate, 1 hour after; for metabolised at 2 h: read-out: Decomposition rate, 2 hours after
Method: (§1) (1 μg), and the mixture was incubated at 37° C. After 15 minutes, 30 minutes, 1 hour and 2 hours, 0.7M aqueous sodium fluoride solution (0.5 ml) as an esterase inhibitor was added to each sample to stop the reaction.
(§2) Analytical column: Inertsil ODS-3 (4.6×250 mm)
(§3) Mobile phase: acetonitrile/20 mM acetate buffer (pH 5.0)=40/60 Column temperature: 50° C.
(§4) Fluorometry: excitation wavelength 270 nm, emission wavelength 435 nm

[2] = test system: male SD rats; assay: Acute Toxicity Test (oral); type: in vivo, rat (SD); conditions: 1000 mg/kg
Method: Male SD rats of 7 weeks age (n=5; 190-210 g in body weight) were fasted for 18 hours. (R)-3-[7-Carbamoyl-5-[2-[[2-(2-ethoxyphenoxy)ethyl]amino]propyl]-1H-indol- 1-yl]propyl pivalate hydrochloride which was suspended in 0.5% aqueous methylcellulose solution at a concentration of 100 mg/ml was orally administered to the rats at a dose of 1000 mg/kg.

[3] = Test for Measuring Drug Concentration in Aqueous Humor (2), after instillation of Compound C hydrochloride; type: in vivo, rabbit (Japanese White); conditions: rabbit eye
Method: To the collected aqueous humor (0.1 ml) was added internal standard [(R)-3-chloro-1-(3-hydroxypropyl)-5-[2-[[2-[2-(2,2,2-trifluoroethoxy)phenoxy]ethyl]amino]propyl]-1H-indole-7-carboxamide](10 ng), and 0.1M phosphate buffer (pH7.6) and sodium chloride (about 1 g) were added to the mixture. The resulting mixture was extracted with diethyl ether (5 ml), and the diethyl ether layer was concentrated under a stream of nitrogen.
Mobile phase: acetonitrile/0.1% phosphoric acid+2 mM sodium laurylsulfate=1/1
Fluorometry: excitation wave length 270 nm, emission wave length 435 nm

[4] = test system: Endogenous Enzyme; assay: Test for Rate of Hydrolysis by Endogenous Enzyme in whole blood; type: in vitro ADME, rat (male Wistar); conditions: blood, 2 hours
Method: as §1, §2, §3, §4

[5] = Stability Test in aqueous solution; type: physicochemical; conditions: pH 5, decomposed into Compound A
Method: The test compounds were dissolved in 0. 1M acetate buffer (pH 5.0) to prepare 0.1% solutions. Each 0.1% solution was allowed to stand in the dark for 28 days at 40° C., 50° C., 60° C. and 70° C., respectively.

[6] = target: T1, α1-adrenoceptor (Rattus norvegicus, UniProt P43140); assay: Test for Measuring α1-adrenoceptor Blocking Effect (inhibition of norepinephrine contraction of isolated ductus deferens); type: cell-based, rat (male Wistar); conditions: 10 μM norepinephrine, propranorol 1 μM and yohimbine 0.1 μM
T1 construct: Ductus deferenses (about 1.5 cm from testis side) were isolated; from tissue; host or cells: isolated ductus deferens (about 1.5 cm from testis side) of male Wistar rats, organ bath
T1 sequence (P43140 1-466): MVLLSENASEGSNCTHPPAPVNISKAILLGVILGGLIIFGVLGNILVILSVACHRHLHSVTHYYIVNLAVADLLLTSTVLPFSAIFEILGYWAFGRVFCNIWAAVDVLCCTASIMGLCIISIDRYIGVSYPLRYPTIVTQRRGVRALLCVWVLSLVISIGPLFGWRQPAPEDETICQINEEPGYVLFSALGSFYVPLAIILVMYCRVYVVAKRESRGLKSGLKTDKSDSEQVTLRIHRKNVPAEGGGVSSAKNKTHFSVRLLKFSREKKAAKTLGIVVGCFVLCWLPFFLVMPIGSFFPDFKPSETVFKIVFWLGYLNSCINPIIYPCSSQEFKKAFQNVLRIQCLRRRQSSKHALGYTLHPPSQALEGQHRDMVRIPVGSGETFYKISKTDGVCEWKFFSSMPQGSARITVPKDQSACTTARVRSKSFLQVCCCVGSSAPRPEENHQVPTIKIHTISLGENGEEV
Method: Ductus deferenses (about 1.5 cm from testis side) were isolated frommaleWistar rats (about 300 to 350 g in body weight). […] A solution of a mixture containing propranorol and yohimbine (final concentration: propranorol 1 μM and yohimbine 0.1 μM) was added into the Magnus bath. After 30 minutes, norepinephrine at the final concentration of 10 μM was added into the Magnus bath until the maximum contraction was obtained, and each preparation was washed. This procedure was repeated several times until the heights of contraction were stable. Each preparation was pre-treated with a solution containing the test compound before 30 minutes, and the contractile responses by treatment of 10 μM norepinephrine were measured. Contraction of each preparation without pre-treatment of the test compound was expressed as 100%.

[7] = rat whole blood, 37° C., 1 μg in 0.5 ml
[8] = rat whole blood, 37° C., 1 μg in 0.5 ml, read-out: Decomposition rate, 30 minutes after

SMILES	metabolised at 0.5 h ([1]; blood, 30 minutes)	metabolised at 0.25 h [1, 7]	metabolised at 0.5 h [1, 8]	metabolised at 1 h [1, 7]	metabolised at 2 h [1, 7]	other results
CCOc1ccccc1OCCN[C@H](C)Cc1cc(C(N)=O)c2c(ccn2CCCOC(=O)C(C)(C)C)c1.Cl [Compound C hydrochloride, (R)-3-[7-Carbamoyl-5-[2-[[2-(2-ethoxyphenoxy)ethyl]amino]-propyl]-1H-indol-1-yl]propyl Pivalate Hydrochloride]						fatal rats during 24 hours after administration [2]: Any fatal rats were not observed
C[C@H](Cc1cc(C(N)=O)c2c(ccn2CCCOC(=O)C(C)(C)c2ccccc2)c1)NCCOc1ccccc1OCC(F)(F)F [Compound c, (R)-3-[7-Carbamoyl-5-[2-[[2-[2-(2,2,2-trifluoroethoxy)-phenoxy]ethyl]amino]propyl]1H-indol-1-yl]propyl α,α-dimethylphenylacetate]	~2%					
C[C@H](Cc1cc(C(N)=O)c2c(ccn2CCCOC(=O)C(C)(C)c2ccccc2)c1)NCCOc1ccccc1OCC(F)(F)F [Compound c]		0.6%	1.6%	3.2%	3.7%	
CCOc1ccccc1OCCN[C@H](C)Cc1cc(C(N)=O)c2c(ccn2CCCOC(=O)C(C)(C)C)c1 [Compound C, (R)-3-[7-Carbamoyl-5-[2-[[2-(2-ethoxyphenoxy)ethyl]amino]-propyl]-1H-indol-1-yl]propyl Pivalate]						detection of the ester in aqueous humor ([3]; even after 20 minutes): could not be detected in aqueous humor at all even after 20 minutes
CCOc1ccccc1OCCN[C@H](C)Cc1cc(C(N)=O)c2c(ccn2CCCOC(=O)C(C)(C)C)c1 [Compound C]						concentration at 20 min ([3]; aqueous humor, topical or ocular, 50 ug/eye, 50 μl of 0.1% Compound C hydrochloride instilled, Compounds B and C determined, read-out: Drug concentrations in aqueous humor, 20 minutes after): < 1 ng/mL; concentration at 2 h ([3]; aqueous humor, topical or ocular, 50 ug/eye, 50 μl of 0.1% Compound C hydrochloride instilled, Compounds B and C determined, read-out: Drug concentrations in aqueous humor, 2 hours after): < 1 ng/mL; concentration at 6 h ([3]; aqueous humor, topical or ocular, 50 ug/eye, 50 μl of 0.1% Compound C hydrochloride instilled, Compounds B and C determined, read-out: Drug concentrations in aqueous humor, 6 hours after): < 1 ng/mL
CCCC(=O)N1CCCN(c2nc(N)c3cc(OC)c(OC)cc3n2)CC1 [Bunazosin hydrochloride]						IC50 [6]: 315 nM

Now from value to compound, other results behind:

metabolised at 0.5 h ([1]; blood, 30 minutes)	metabolised at 0.25 h [1, 7]	metabolised at 0.5 h [1, 8]	metabolised at 1 h [1, 7]	metabolised at 2 h [1, 7]	SMILES	other results
~12%					CCC(CC)C(=O)OCCCn1ccc2cc(C[C@@H](C)NCCOc3ccccc3OCC(F)(F)F)cc(C(N)=O)c21 [Compound a, (R)-3-[7-Carbamoyl-5-[2-[[2-[2-(2,2,2-trifluoroethoxy)-phenoxy]ethyl]amino]propyl]-1H-indol-1-yl]propyl 2-ethyl-butyrate]	
	54.8%	67.1%	86.5%	98.6%	C[C@H](Cc1cc(C(N)=O)c2c(ccn2CCCOC(=O)C(C)(C)C)c1)NCCOc1ccccc1OCC(F)(F)F [Compound D]	
~6%					CCC(C)(C)C(=O)OCCCn1ccc2cc(C[C@@H](C)NCCOc3ccccc3OCC(F)(F)F)cc(C(N)=O)c21 [Compound d, (R)-3-[7-Carbamoyl-5-[2-[[2-[2-(2,2,2-trifluoroethoxy)-phenoxy]ethyl]amino]propyl]-1H-indol-1-yl]propyl 2,2-Dimethylbutyrate]	
	8.4%	12%	12.6%	25.2%	CCC(CC)C(=O)OCCCn1ccc2cc(C[C@@H](C)NCCOc3ccccc3OCC(F)(F)F)cc(C(N)=O)c21 [Compound a]	
	2.2%	3.8%	7.5%	10.2%	CCCC(C)(C)C(=O)OCCCn1ccc2cc(C[C@@H](C)NCCOc3ccccc3OCC(F)(F)F)cc(C(N)=O)c21 [Compound b]	
	2.1%	5.6%	8.4%	21.7%	CCC(C)(C)C(=O)OCCCn1ccc2cc(C[C@@H](C)NCCOc3ccccc3OCC(F)(F)F)cc(C(N)=O)c21 [Compound d]	
~67%					C[C@H](Cc1cc(C(N)=O)c2c(ccn2CCCOC(=O)C(C)(C)C)c1)NCCOc1ccccc1OCC(F)(F)F [Compound D, (R)-3-[7-Carbamoyl-5-[2-[[2-[2-(2,2,2-trifluoroethoxy)-phenoxy]ethyl]amino]propyl]-1H-indol-1-yl]propyl Pivalate]	conversion into Compound A after 2 hours [4]: almost Compound A after 2 hours; degraded ([5]; 40° C., about 1 month at 40° C.): ~0.1%; degraded ([5]; 70° C., about 1 month at 70° C.): ~1.1%
~4%					CCCC(C)(C)C(=O)OCCCn1ccc2cc(C[C@@H](C)NCCOc3ccccc3OCC(F)(F)F)cc(C(N)=O)c21 [Compound b, (R)-3-[7-Carbamoyl-5-[2-[[2-[2-(2,2,2-trifluoroethoxy)-phenoxy]ethyl]amino]propyl]-1H-indol-1-yl]propyl 2,2-dimethylvalerate]	
